From patent publication US12606537B2, “Thiophene derivatives” (priority 2019, dated 2026)
Read-outs that look alike come from different tables or passages of the source.

How the values were obtained:
[1] = biological target: T1, interaction of the PAS B domains of HIF-2α and HIF-1β (Homo sapiens, UniProt Q99814); experiment: AlphaScreen protein protein interaction assay; format: biochemical
T1 construct: His6Gb1-TEV-GEFKGL-HIF2α (240-350aa)-G; His6 (N); Gb1 (protein G B1 domain) (N); TEV site (N)
Description: For the assessment of functional disruption of the interaction of the PAS B domains of HIF-2α and HIF-1β an AlphaScreen assay was set-up. The assay was performed in 384 well light gray Perkin Elmer microtiter plates in a total volume of 7 μl. […] The detection of the protein protein interaction was performed by adding AlphaLISA® Anti-FLAG Acceptor beads (fc 20 μg/mL) and AlphaScreen® Nickel Chelate Donor beads (fc 9 μg/mL) (both Perkin Elmer) and the reaction was incubated for 240 min at 23° C. in the dark. If donor and acceptor beads get in close proximity to each other caused by interaction of HIF2alpha PAS B with HIF-1ß PAS B domain it results in a luminescence signal at 615 nm after excitation at 680 nm. The PPI disruption activity of a compound was calculated directly from the loss in Alphascreen signal. The AlphaScreen signal was measured with an Envision multimode reader (Perkin Elmer LAS Germany GmbH). The control value used was the inhibitor-free reaction. The pharmacological zero value used was determined in the absence of HIF-1ß. The inhibitory values (IC50) were calculated using Assay analyser from GeneData.

HIF2α-HIF1β complex = experiment: Cellular mechanistic assay: 786-O HRE-luc2P reporter assay; format: cell-based, human
Description: This reporter assay was designed to monitor binding of the HIF2α-HIF1β complex to specific DNA fragment called hypoxia response element (HRE) in physiologically relevant cell line. […] HRE is present in promoters of various genes regulated by hypoxia inducible factors. […] As a result, this reporter assay allows monitoring of HIF2α-HIF1β activity by determining the activity of produced luciferase. Cell culture is performed in RPMI media supplemented with 10% FBS, Sodium Pyruvate, Penicillin/Streptomycin, Glutamine, 200 μg/mL Hygromycin Gold.
The assay was performed in 384 well white, opaque microtiterplate with transparent bottom (Greiner Bio-one, Frickenhausen). […] 50 μl of cell suspension (2000 cells) per well were dispensed in microtiter plates and incubated over night at 37° C. in a 5% CO2 incubator. Compounds were added with Labcyte Echo dispenser (fc 0.3% DMSO, 9 concentrations dilution raw starting at 30 μM). Plates were incubated for 48 h at 37° C. in a 5% CO2 incubator. After this 45 μl of prewarmed ONE-Glo™ EX Reagent were added per well. Plates were placed on an orbital shaker at 1200 rpm for 3 minutes. Plates were sealed and luminescence was measured a Tecan Spark 20M microplate reader (end-point measurement with 0.1 second reading time). Values were normalized to DMSO ctrl and wells without cells (only medium ctrl). Decrease in luminescence directly correlates with inhibition of HIF2α activity. EC50 values and % of effect values were calculated fitting a variable-slope sigmoidal function using Ryvu Therapeutics (formerly Selvita S.A.) DRC application or GraphPad Prism software.

HIF2a (240-350)-G = biological target: T2, HIF2a (240-350)-G (Homo sapiens, UniProt Q99814); experiment: ITC (isothermal titration calorimetry) binding
T2 construct: The protein, HIF2a (240-350)-G, was prepared by recombinant overexpression; made in house
Description: ITC measurements were performed with a VP-ITC microcalorimeter from MicroCal/Malvern (UK). For all titration experiments the protein and the respective compounds were formulated in 30 mM HEPES buffer pH 7.5, 150 mM NaCl and 5 mM ß-mercaptoethanol. The protein, HIF2a (240-350)-G, was prepared by recombinant overexpression and multistep chromatography purification. Compounds were used from concentrated DMSO stock solutions. The final protein concentration in the injection syringe was 100 μM. Ligand stock solutions of 10 mM in DMSO were diluted to 10 μM concentrations with buffer and loaded into the sample cell. All buffers were adjusted to a final concentration of 1% (v/v) DMSO. Both, the titrate and titrant solutions were degassed prior to loading the calorimeter cell and injection syringe. […] The integrated heat data were fit with a one-site binding model to determine the apparent values for affinity, enthalpy and stoichiometry of binding.

[2] = Homo sapiens, 786-0, 48 h, read-out: HRE-luc2P reporter assay IC50, 786-O HRE-luc2P cells, 48 h incubation, luciferase luminescence
[3] = read-out: HRE-luc2P reporter assay IC50, 786-O HRE-luc2P cells, 48 h incubation, luciferase luminescence

T2 sequence (Q99814 240-350): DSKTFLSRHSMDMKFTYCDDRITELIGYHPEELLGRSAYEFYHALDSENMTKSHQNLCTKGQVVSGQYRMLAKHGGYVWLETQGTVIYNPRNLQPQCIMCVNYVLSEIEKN
T1 sequence (Q99814 240-350): as above

IC50 [1]	IC50 (HIF2α-HIF1β complex; [2])	Kd (HIF2a (240-350)-G)	IC50 (HIF2α-HIF1β complex; [3])	IC50 ([1]; read-out: AlphaScreen IC50, disruption of HIF-2α / HIF-1β (ARNT) PAS B interaction, recombinant proteins 143 nM each)	Structure (SMILES)
< 50 nM	50 to 1000 nM				CS(=O)(=O)c1sc(OCC(F)(F)F)c2c1[C@H](O)[C@@H](F)C2 [Example 17a, (4S,5S)-5-fluoro-3-methanesulfonyl-1-(2,2,2-trifluoroethoxy)-4H,5H,6H-cyclopenta[c]thiophen-4-ol]
> 1000 nM	> 1000 nM	> 1000 nM			CS(=O)(=O)c1sc(Oc2cccc(C#N)c2)c2c1[C@H](O)C(F)(F)C2 [Example 31a, 3-{[(4S)-5,5-difluoro-4-hydroxy-3-methanesulfonyl-4H,5H,6H-cyclopenta[c]thiophen-1-yl]oxy}benzonitrile]
> 1000 nM	> 1000 nM	> 1000 nM			CS(=O)(=O)c1sc(Oc2cc(F)cc(Cl)c2)c2c1[C@H](O)C(F)(F)C2 [Example 30a, (4S)-1-(3-chloro-5-fluorophenoxy)-5,5-difluoro-3-methanesulfonyl-4H,5H,6H-cyclopenta[c]thiophen-4-ol]
< 50 nM	> 1000 nM	100 to 1000 nM			COC1(COc2sc(S(C)(=O)=O)c3c2CC(F)(F)[C@H]3O)CCC1 [Example 16a, (4S)-5,5-difluoro-3-methanesulfonyl-1-[(1-methoxycyclobutyl)methoxy]-4H,5H,6H-cyclopenta[c]thiophen-4-ol]
< 50 nM	> 1000 nM	100 to 1000 nM			CCC(Oc1sc(S(C)(=O)=O)c2c1CC(F)(F)[C@H]2O)C(F)(F)F (single isomer, unassigned) [Example 9a]
< 50 nM	> 1000 nM				CS(=O)(=O)c1sc(OCCOC(F)(F)F)c2c1[C@H](O)C(F)(F)C2 [Example 23a, (4S)-5,5-difluoro-3-methanesulfonyl-1-[2-(trifluoromethoxy)ethoxy]-4H,5H,6H-cyclopenta[c]thiophen-4-ol]
< 50 nM			> 1000 nM		CC(Oc1sc(S(C)(=O)=O)c2c1CC(F)(F)[C@H]2O)C(F)F (single isomer, unassigned) [Example 10a]
< 50 nM		100 to 1000 nM			CS(=O)(=O)c1sc(OC2CCOCC2)c2c1[C@H](O)C(F)(F)C2 [Example 22a, (4S)-5,5-difluoro-3-methanesulfonyl-1-(oxan-4-yloxy)-4H,5H,6H-cyclopenta[c]thiophen-4-ol]
> 1000 nM	> 1000 nM				CCOc1sc(S(C)(=O)=O)c2c1CC(F)(F)[C@H]2O [Example 32a, (4S)-1-ethoxy-5,5-difluoro-3-methanesulfonyl-4H,5H,6H-cyclopenta[c]thiophen-4-ol]
> 1000 nM	> 1000 nM	> 1000 nM			CS(=O)(=O)c1sc(Oc2ccc(F)c(F)c2)c2c1C(O)C(F)(F)C2 (racemic) [Example 24a, 1-(3,4-difluorophenoxy)-5,5-difluoro-3-methanesulfonyl-4H,5H,6H-cyclopenta[c]thiophen-4-ol]
50 to 1000 nM	> 1000 nM				CS(=O)(=O)c1sc(Oc2ccc(F)c(F)c2)c2c1[C@H](O)C(F)(F)C2 [Example 34a, (4S)-1-(3,4-difluorophenoxy)-5,5-difluoro-3-methanesulfonyl-4H,5H,6H-cyclopenta[c]thiophen-4-ol]
> 1000 nM	> 1000 nM	> 1000 nM			CS(=O)(=O)c1sc(Oc2ccc(F)cc2)c2c1[C@H](O)C(F)(F)C2 [Example 29a, (4S)-5,5-difluoro-1-(4-fluorophenoxy)-3-methanesulfonyl-4H,5H,6H-cyclopenta[c]thiophen-4-ol]
			50 to 1000 nM	< 50 nM	CC(Oc1sc(S(C)(=O)=O)c2c1CC(F)(F)[C@H]2O)C(F)F (single isomer, unassigned) [Example 14a]
